Patent US4483794A, “Analogs of neurohypophysial hormones” (Ceskoslovenska akademie ved, priority 1983, dated 1984)
Each block holds one molecule with its values, some of them ahead of it. *1 amine or outer side, *2 acyl side, *3 side chain or, on linkers, in order; H or OH if unused. Where a SMILES comes first, the peptide text is derived from it. Bridges are numbered along the chain shown (N, C = ends). [ ]: non-standard residue; d: D form. dPhe(4-Et) = CCc1ccc(C[C@@H](N)C(=O)O)cc1; dPhe(4-Me) = Cc1ccc(C[C@@H](N)C(=O)O)cc1; hCys = N[C@@H](CCS)C(=O)O; X1 = O=C(CC[*:2])[*:1]

Assays:
isolated rat uterus = target: T1, isolated rat uterus (Rattus norvegicus, UniProt P70536); experiment: pA2 values as tested with an isolated rat uterus (oxytocin as agonist); type: cell-based; settings: negative decadic logarithm of an inhibitory constant
T1 construct: isolated rat uterus; from tissue; host or cells: isolated rat uterus
T1 sequence (P70536 1-388): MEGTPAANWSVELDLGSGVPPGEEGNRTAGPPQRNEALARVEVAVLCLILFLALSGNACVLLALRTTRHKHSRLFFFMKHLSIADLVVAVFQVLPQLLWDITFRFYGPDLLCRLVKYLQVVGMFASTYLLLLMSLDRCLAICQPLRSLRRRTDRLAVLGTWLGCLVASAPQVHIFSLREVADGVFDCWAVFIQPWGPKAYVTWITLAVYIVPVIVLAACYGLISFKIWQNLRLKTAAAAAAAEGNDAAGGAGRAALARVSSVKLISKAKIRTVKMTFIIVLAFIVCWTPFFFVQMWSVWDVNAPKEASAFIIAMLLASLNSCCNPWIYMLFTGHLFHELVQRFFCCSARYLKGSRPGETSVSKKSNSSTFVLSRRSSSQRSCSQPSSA
Excerpt: Each of the above-identified analogs evidenced strong inhibitory effects. Table I, set forth below, set forth numerical values of the biological activity of these analogs wherein pA2 represents the negative decadic logarithm of an inhibitory constant in accordance with the equation [formula] wherein B is the concentration of the inhibitor in moles per liter, A50 is the concentration of an agonistic compound (oxytocin) which results in 50% of the maximum effect, and A50B is the concentration of an agonistic compound yielding 50% of the maximum effect in the presence of an inhibitor of concentration B (Eggena P., Schwartz I. L., and Walter R.: J. Gen. Physiol. 52, 465 (1968).
pA2 values as tested with an isolated rat uterus

[1] = target: T2, biological effect of vasopressin (blood pressure) (Rattus norvegicus, UniProt P30560); experiment: suppression of the biological effect of vasopressin, i.e. of blood pressure in a despinalized rat; settings: in vivo, blood volume 6.7 ml/100g of rat weight assumed
T2 construct: blood pressure in a despinalized rat; from tissue; host or cells: despinalized rat in vivo (vasculature)
T2 sequence (P30560 whole entry): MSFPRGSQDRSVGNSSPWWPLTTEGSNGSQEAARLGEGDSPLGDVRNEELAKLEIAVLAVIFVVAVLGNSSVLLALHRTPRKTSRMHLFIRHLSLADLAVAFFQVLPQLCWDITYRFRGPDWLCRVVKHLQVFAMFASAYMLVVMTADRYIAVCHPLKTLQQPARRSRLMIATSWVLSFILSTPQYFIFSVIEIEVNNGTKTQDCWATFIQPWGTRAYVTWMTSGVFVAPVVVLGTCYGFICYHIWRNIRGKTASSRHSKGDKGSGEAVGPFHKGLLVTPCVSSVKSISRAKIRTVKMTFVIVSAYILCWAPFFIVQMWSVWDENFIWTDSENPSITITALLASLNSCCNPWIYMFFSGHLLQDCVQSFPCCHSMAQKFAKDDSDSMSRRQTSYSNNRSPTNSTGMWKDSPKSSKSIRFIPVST
Procedure: ^(a) the negative decadic logarithm of the analog concentration which
leads to suppression of the biological effect of vasopressin (i.e. of
blood pressure in a despinalized rat) to 50% of the original response; th
blood volume of rat (6.7 ml/100g of rat weight) is assumed in the in vivo
test (Nestor J. J., Ferger M. F., du Vigneaud V.: J. Med. Chem. 18, 284

[2] = system: uterotonic activity of oxytocin; experiment: inhibitory effect toward the uterotonic activity of oxytocin in the in vivo test with a uterus; settings: compared with the equipotential dose of [2D-p-ethylphenylalanine] oxytocin
Excerpt: uterotonic activity of oxytocin in the in vivo test with a uterus as
compared with the equipotential dose of the compound ([
2D-p-ethylphenylalanine] oxytocin).

[3] = system: uterotonic and pressor activity of natural hormones; experiment: inhibitory effects of the analogs toward natural hormones (general statements); settings: in words

Kb (isolated rat uterus): 28.8 nM
SMILES: CCOc1ccc(C[C@H]2NC(=O)CCSCC[C@@H](C(=O)N3CCC[C@H]3C(=O)N[C@@H](CC(C)C)C(=O)NCC(N)=O)NC(=O)[C@H](CC(N)=O)NC(=O)[C@H](CCC(N)=O)NC(=O)[C@H]([C@@H](C)CC)NC2=O)cc1 [Ib, [2-D-o-Ethyltyrosine]deamino-6-carba-oxytocin] ([dY](Et)IQN[hCys]PLG-NH2; linker N-5 via X1)

Kb (isolated rat uterus): 1.86 nM
SMILES: CC[C@H](C)[C@@H]1NC(=O)[C@@H](Cc2ccc(C)cc2)NC(=O)CCSCC[C@@H](C(=O)N2CCC[C@H]2C(=O)N[C@@H](CC(C)C)C(=O)NCC(N)=O)NC(=O)[C@H](CC(N)=O)NC(=O)[C@H](CCC(N)=O)NC1=O [Ic, [2-D-p-Methylphenylalanine]deamino-6-carba-oxytocin] ([dPhe(4-Me)]IQN[hCys]PLG-NH2; linker N-5 via X1)

Kb (isolated rat uterus): 1.86 nM
SMILES: CCc1ccc(C[C@H]2NC(=O)CCSCC[C@@H](C(=O)N3CCC[C@H]3C(=O)N[C@@H](CC(C)C)C(=O)NCC(N)=O)NC(=O)[C@H](CC(N)=O)NC(=O)[C@H](CCC(N)=O)NC(=O)[C@H]([C@@H](C)CC)NC2=O)cc1 [Id, [2-D-p-Ethylphenylalanine]deamino-6-carba-oxytocin] ([dPhe(4-Et)]IQN[hCys]PLG-NH2; linker N-5 via X1)

Second part, the molecule before the results:

SMILES: CC[C@H](C)[C@@H]1NC(=O)[C@@H](Cc2ccccc2)NC(=O)CCSCC[C@@H](C(=O)N2CCC[C@H]2C(=O)N[C@@H](CC(C)C)C(=O)NCC(N)=O)NC(=O)[C@H](CC(N)=O)NC(=O)[C@H](CCC(N)=O)NC1=O [Ia, [2-D-Phenylalanine]deamino-6-carba-oxytocin] (HELM PEPTIDE1{[dF].I.Q.N.[O=C([C@H](CCS[*:3])N[*:1])[*:2]].P.L.G.[am]}|CHEM1{[O=C(CC[*:2])[*:1]]}$PEPTIDE1,CHEM1,1:R1-1:R1|PEPTIDE1,CHEM1,5:R3-1:R2$$$V2.0)
Kb (isolated rat uterus): 5.5 nM

SMILES: CCc1ccc(C[C@H]2NC(=O)CCSSC[C@@H](C(=O)N3CCC[C@H]3C(=O)N[C@@H](CC(C)C)C(=O)NCC(N)=O)NC(=O)[C@H](CC(N)=O)NC(=O)[C@H](CCC(N)=O)NC(=O)[C@H]([C@@H](C)CC)NC2=O)cc1 [Ie, [2-D-p-Ethylphenylalanine]deamino-oxytocin] (HELM PEPTIDE1{[O=C(CCS[*:3])[*:2]].[CCc1ccc(C[C@@H](N[*:1])C(=O)[*:2])cc1].I.Q.N.C.P.L.G.[am]}$PEPTIDE1,PEPTIDE1,1:R3-6:R3$$$V2.0)
pA2 (isolated rat uterus): 8.06

SMILES: CCc1ccc(C[C@H]2NC(=O)[C@@H](N)CSSC[C@@H](C(=O)N3CCC[C@H]3C(=O)N[C@@H](CC(C)C)C(=O)NCC(N)=O)NC(=O)[C@H](CC(N)=O)NC(=O)[C@H](CCC(N)=O)NC(=O)[C@H]([C@@H](C)CC)NC2=O)cc1 [If, [2-D-p-Ethylphenylalanine]oxytocin] (HELM PEPTIDE1{C.[CCc1ccc(C[C@@H](N[*:1])C(=O)[*:2])cc1].I.Q.N.C.P.L.G.[am]}$PEPTIDE1,PEPTIDE1,1:R3-6:R3$$$V2.0)
Kb (isolated rat uterus): 7.08 nM

SMILES: CCc1ccc(C[C@H]2NC(=O)[C@@H](N)C(C)(C)SSC[C@@H](C(=O)N3CCC[C@H]3C(=O)N[C@@H](CC(C)C)C(=O)NCC(N)=O)NC(=O)[C@H](CC(N)=O)NC(=O)[C@H](CCC(N)=O)NC(=O)[C@H]([C@@H](C)CC)NC2=O)cc1 [Ig, [1-Penicilamine, 2-D-p-ethylphenylalanine]oxytocin] (HELM PEPTIDE1{[Pen].[CCc1ccc(C[C@@H](N[*:1])C(=O)[*:2])cc1].I.Q.N.C.P.L.G.[am]}$PEPTIDE1,PEPTIDE1,1:R3-6:R3$$$V2.0)
Kb (isolated rat uterus): 8.13 nM

SMILES: CCc1ccc(C[C@H]2NC(=O)[C@@H](N)CSSC[C@@H](C(=O)N3CCC[C@H]3C(=O)N[C@@H](CCCCN)C(=O)NCC(N)=O)NC(=O)[C@H](CC(N)=O)NC(=O)[C@H](CCC(N)=O)NC(=O)[C@H](Cc3ccccc3)NC2=O)cc1 [Ih, [2-D-p-Ethylphenylalanine, 8-lysine]vasopressin] (HELM PEPTIDE1{C.[CCc1ccc(C[C@@H](N[*:1])C(=O)[*:2])cc1].F.Q.N.C.P.K.G.[am]}$PEPTIDE1,PEPTIDE1,1:R3-6:R3$$$V2.0)
pA2 (negative decadic logarithm of the analog concentration which leads to suppression of the biological effect of vasopressin to 50% of the original response) [1]: 7.05

SMILES: CCc1ccc(C[C@H]2NC(=O)[C@@H](NC(=O)CNC(=O)CNC(=O)CN)CSSC[C@@H](C(=O)N3CCC[C@H]3C(=O)N[C@@H](CC(C)C)C(=O)NCC(N)=O)NC(=O)[C@H](CC(N)=O)NC(=O)[C@H](CCC(N)=O)NC(=O)[C@H]([C@@H](C)CC)NC2=O)cc1 [Ii, N^δ -Glycyl-glycyl-glycyl[2-D-p-ethylphenylalanine]oxytocin] (HELM PEPTIDE1{G.G.G.C.[CCc1ccc(C[C@@H](N[*:1])C(=O)[*:2])cc1].I.Q.N.C.P.L.G.[am]}$PEPTIDE1,PEPTIDE1,4:R3-9:R3$$$V2.0)
inhibitory effect toward the uterotonic activity of oxytocin, duration [2]: prolonged inhibitory effect | Kb (isolated rat uterus): 724 nM

SMILES: CC[C@H](C)[C@@H]1NC(=O)[C@@H](Cc2ccc(C)cc2)NC(=O)CCSCC[C@@H](C(=O)N2CCC[C@H]2C(=O)N[C@@H](CC(C)C)C(=O)O)NC(=O)[C@H](CC(N)=O)NC(=O)[C@H](CCC(N)=O)NC1=O [Ij, [2-D-p-methylphenylalanine, 9-desglycinamide]deamino-6-carbaoxytocin] ([dPhe(4-Me)]IQN[hCys]PL-OH; linker N-5 via X1)
Kb (isolated rat uterus): 1.58 nM | inhibitory effect [3]: retained
